# Values of other authors in patent US11622958B2, “Bifunctional prodrugs” (GEORG-AUGUST-UNIVERSITÄT GÖTTINGEN STIFTUNG ÖFFENTLICHEN …, priority 2015, dated 2023).
# Key:
# [1] = not given; remark: listed apart in the source
smiles,measurement,setting,value
COc1c(O)c2c(c3cc(C(=O)N4CCc5c4c(O)c(OC)c4[nH]c(C(=O)N6CC7CC78C6=CC(=O)c6[nH]cc(C)c68)cc54)[nH]c13)CCN2C(N)=O (centres unmarked) [CC-1065],IC50,,0.02 nM
same,hepatotoxicity in animal experiments,[1],delayed lethal hepatotoxicity
